Converted amounts (≈) assume the structure as drawn.
What was measured:
Test in all cases: ≥ marks a high value that may be exact or a test limit, other limits are often not marked, values filed in µg/mL are converted to µM
[1] = system: Bacillus subtilis KCTC 3068
[2] = system: Enterococcus faecalis ATCC 51575
[3] = system: Enterococcus faecalis KCCM 29212
[4] = system: Enterococcus faecium ATCC 51559
[5] = system: Enterococcus faecium KCCM 12118
[6] = system: Escherichia coli KCTC 1682
[7] = system: Pseudomonas aeruginosa KCTC 1637
[8] = system: Salmonella typhimurium KCTC 1926
[9] = system: Staphylococcus aureus KCCM 40510
[10] = system: Staphylococcus aureus KCTC 1621
[11] = system: Staphylococcus epidermidis KCTC 1917
Bacillus megaterium Bm11 = system: Bacillus megaterium Bm11
[12] = system: Enterobacter cloacae ATCC 49141
[13] = system: Enterococcus faecalis ATCC 19433
[14] = system: Escherichia coli ATCC 25922
[15] = system: Klebsiella aerogenes ATCC 35029
[16] = system: Pseudomonas aeruginosa ATCC 27853
[17] = system: Staphylococcus aureus ATCC 6538P
[18] = system: Streptococcus pyogenes ATCC 49399
[19] = system: Candida albicans ATCC 2048
[20] = system: Candida glabrata ATCC 90525
Candida krusei ATCC 6258 = system: Candida krusei ATCC 6258
[21] = system: Candida parapsilosis ATCC 20224
[22] = system: Candida tropicalis ATCC 20240
[23] = system: Aeromonas hydrophila TISTR 1321
[24] = system: Bacillus cereus TISTR 1449
[25] = system: Bacillus megaterium TISTR 067
[26] = system: Bacillus subtilis TISTR 1248
[27] = system: Candida albicans TISTR 5554
[28] = system: Edwardsiella tarda DMST 38217
[29] = system: Enterococcus faecalis TISTR 927
[30] = system: Escherichia coli DH5alpha
[31] = system: Pseudomonas aeruginosa TISTR 1287
[32] = system: Salmonella enterica subsp. enterica serovar Derby DMST 16881
[33] = system: Salmonella typhimurium TISTR 1472
[34] = system: Staphylococcus aureus ATCC 25923
[35] = system: Staphylococcus aureus TISTR 746
[36] = system: Candida albicans KCTC 7270
[37] = system: Escherichia coli CCARM 1229
[38] = system: Escherichia coli CCARM 1238
[39] = system: Pseudomonas aeruginosa 4007
[40] = system: Pseudomonas aeruginosa 4891
[41] = system: Staphylococcus aureus CCARM 3090
[42] = system: Staphylococcus aureus CCARM 3518
[43] = system: Trichosporon beigelii KCTC 7707
[44] = system: Enterobacter cloacae beta-12
Escherichia coli D31 = system: Escherichia coli D31
Escherichia coli SBS 363 = system: Escherichia coli SBS 363
[45] = system: Pseudomonas aeruginosa PA14

CC[C@H](C)[C@H](NC(=O)[C@H](CC(C)C)NC(=O)[C@H](CC(C)C)NC(=O)[C@@H](N)CC(C)C)C(=O)N[C@@H](C)C(=O)N[C@@H](CC(C)C)C(=O)N[C@@H](CCCN=C(N)N)C(=O)N[C@@H](CCCCN)C(=O)N[C@@H](CCCCN)C(N)=O [LLLIALRKK]
MIC [1]: 3.75 µM (≈ 4 µg/mL) | MIC [2]: 7.49 µM (≈ 7.99 µg/mL) | MIC [3]: 3.75 µM (≈ 4 µg/mL) | MIC [4]: 1.87 µM (≈ 2 µg/mL) | MIC [5]: 3.75 µM (≈ 4 µg/mL) | MIC [6]: 3.75 µM (≈ 4 µg/mL) | MIC [7]: 3.75 µM (≈ 4 µg/mL) | MIC [8]: 1.87 µM (≈ 2 µg/mL) | MIC [9]: 3.75 µM (≈ 4 µg/mL) | MIC [10]: 3.75 µM (≈ 4 µg/mL) | MIC [11]: 1.87 µM (≈ 2 µg/mL)

CC[C@H](C)[C@H](NC(=O)[C@H](Cc1c[nH]c2ccccc12)NC(=O)[C@H](Cc1ccccc1)NC(=O)[C@@H]1CCCN1C(=O)[C@H](CCCN=C(N)N)NC(=O)[C@@H](N)CCCN=C(N)N)C(=O)N[C@H](C(=O)N[C@@H](CCCN=C(N)N)C(=O)N[C@@H](CCCN=C(N)N)C(N)=O)[C@@H](C)CC [RRPFWIIRR]
MIC (Bacillus megaterium Bm11): 1.25 µM (≈ 1.62 µg/mL) | MIC [12]: ≥ 80 µM | MIC [13]: ≥ 80 µM | MIC [14]: 80 µM (≈ 104 µg/mL) | MIC [15]: ≥ 80 µM | MIC [16]: > 80 µM | MIC [17]: ≥ 80 µM | MIC [18]: 10 µM (≈ 13 µg/mL)

CC(C)C[C@H](NC(=O)[C@H](C)NC(=O)[C@H](CC(C)C)NC(=O)[C@H](CC(=O)O)NC(=O)[C@H](CCC(N)=O)NC(=O)[C@@H](N)CC(C)C)C(=O)N[C@@H](CCC(N)=O)C(=O)NCC(=O)N[C@@H](C)C(=O)N[C@@H](CCCCN)C(=O)N[C@@H](CCC(=O)O)C(=O)N[C@@H](CCCN=C(N)N)C(=O)N[C@@H](C)C(=O)N[C@@H](Cc1cnc[nH]1)C(=O)N[C@@H](CCC(N)=O)C(=O)N[C@@H](CCC(N)=O)C(=O)O [LQDLALQGAKERAHQQ]
MIC [19]: ≥ 380 µM | MIC [20]: ≥ 280 µM | MIC (Candida krusei ATCC 6258): ≥ 380 µM | MIC [21]: ≥ 320 µM | MIC [22]: ≥ 410 µM

CC(C)C[C@H](NC(=O)[C@H](CCCCN)NC(=O)[C@@H](NC(=O)[C@H](CO)NC(=O)[C@H](Cc1ccccc1)NC(=O)[C@H](CC(C)C)NC(=O)[C@H](Cc1c[nH]c2ccccc12)NC(=O)[C@@H](NC(=O)[C@H](CS)NC(=O)[C@H](CC(N)=O)NC(=O)[C@@H](N)CCCN=C(N)N)[C@@H](C)O)[C@@H](C)O)C(=O)N[C@@H](CCCCN)C(=O)N[C@@H](CC(C)C)C(=O)N1CCC[C@H]1C(=O)N[C@@H](C)C(=O)O [RNCTWLFSTKLKLPA]
MIC [23]: ≥ 225 µM | MIC [24]: ≥ 225 µM | MIC [25]: 7.03 µM (≈ 12.5 µg/mL) | MIC [26]: 14.1 µM (≈ 25 µg/mL) | MIC [27]: ≥ 225 µM | MIC [28]: ≥ 225 µM | MIC [29]: ≥ 56.2 µM | MIC [14]: 112 µM (≈ 200 µg/mL) | MIC [30]: ≥ 112 µM | MIC [31]: ≥ 225 µM | MIC [32]: ≥ 225 µM | MIC [33]: ≥ 225 µM | MIC [34]: 225 µM (≈ 400 µg/mL) | MIC [35]: ≥ 225 µM

CC[C@H](C)[C@H](NC(=O)[C@H](C)NC(=O)[C@H](CCC(=O)O)NC(=O)[C@H](Cc1cnc[nH]1)NC(=O)[C@@H](NC(=O)[C@H](CCCCN)NC(=O)[C@H](CCC(N)=O)NC(=O)[C@H](Cc1ccccc1)NC(=O)[C@@H](NC(=O)[C@H](CCCCN)NC(=O)[C@H](CCCCN)NC(=O)[C@H](CC(C)C)NC(=O)[C@H](C)NC(=O)[C@H](CC(N)=O)NC(=O)[C@H](CC(C)C)NC(=O)CN)C(C)C)[C@@H](C)CC)C(=O)N[C@@H](CCCCN)C(=O)N[C@@H](CCCCN)C(=O)N[C@H](C(=O)N[C@@H](CC(N)=O)C(=O)N[C@@H](CC(N)=O)C(=O)N[C@@H](Cc1cnc[nH]1)C(=O)N[C@H](C(=O)N[C@@H](CCC(N)=O)C(N)=O)C(C)C)[C@@H](C)CC [GLNALKKVFQKIHEAIKKINNHVQ]
MIC [36]: ≥ 32 µM | MIC [37]: 4 µM (≈ 11.1 µg/mL) | MIC [38]: 4 µM (≈ 11.1 µg/mL) | MIC [39]: 2 µM (≈ 5.54 µg/mL) | MIC [40]: 4 µM (≈ 11.1 µg/mL) | MIC [41]: 8 µM (≈ 22.2 µg/mL) | MIC [42]: 4 µM (≈ 11.1 µg/mL) | MIC [43]: ≥ 32 µM

CC[C@H](C)[C@H](NC(=O)[C@H](CC(=O)O)NC(=O)[C@H](CC(=O)O)NC(=O)[C@H](CC(N)=O)NC(=O)CNC(=O)[C@H](CO)NC(=O)[C@H](Cc1ccccc1)NC(=O)[C@H](CC(=O)O)NC(=O)[C@@H](NC(=O)CNC(=O)[C@@H](N)C(C)C)[C@@H](C)O)C(=O)N[C@@H](CO)C(=O)N[C@@H](CC(=O)O)C(=O)N[C@H](C(=O)N[C@@H](CCC(N)=O)C(=O)N[C@@H](CCCCN)C(=O)O)C(C)C [VGTDFSGNDDISDVQK]
MIC [44]: 2.3 µM (≈ 3.9 µg/mL) | MIC (Escherichia coli D31): 4.6 µM (≈ 7.81 µg/mL) | MIC (Escherichia coli SBS 363): 4.6 µM (≈ 7.81 µg/mL) | MIC [16]: 1.15 µM (≈ 1.95 µg/mL) | MIC [45]: 4.6 µM (≈ 7.81 µg/mL)

Reference: DBAASP
